The source of these data is US20180185313A1, “COMPOSITION COMPRISING AMINO ACID AND CYCLIC DIPEPTIDE” (SUNTORY HOLDINGS LIMITED, priority 2015, published 2018).

The target in test [1] is T1, angiotensin-converting enzyme (Homo sapiens, UniProt P12821).
T1 construct: purchased Dojindo Laboratories ACE Kit-WST
Kind of test: Angiotensin I-converting enzyme-inhibiting activity by ACE Kit-WST (Dojindo Laboratories), residual activity. As to conditions: for angiotensin-converting enzyme-inhibiting action brought about by the amino acid on addition of the cyclic dipeptide: cyclic dipeptide added in a given amount to the amino acid, summary of Tables 1 to 4. It counts as biochemical. On the procedure: The enhancing effect of a cyclic dipeptide on the angiotensin-converting enzyme-inhibiting action of an amino acid was evaluated. Specifically, as for the inhibiting effects of amino acids and cyclic dipeptides, angiotensin I-converting enzyme-inhibiting activities were measured by using ACE Kit-WST (Dojindo Laboratories) according to the instruction manual attached to the kit. The amino acids were studied at a concentration of 1000 μM, 3000 μM, or 5000 μM, and the cyclic dipeptides were studied at a concentration of 20 μM, 50 μM, 100 μM, 250 μM, or 500 μM. Their-inhibiting activities were evaluated as the residual activity of angiotensin-converting enzyme calculated according to expression 1 given below. A control supplemented with distilled water instead of the aqueous cyclic dipeptide solution was used. Chemically synthesized samples were used as the cyclic dipeptides.
Residual activity (%)=(Absorbance at 450 nm from the cyclic dipeptide-added group/Absorbance from 450 nm from the control)×100 (Expression 1)

In test [2] the test system is spontaneously hypertensive rats. As to conditions: oral administration; cited from earlier work.
Setting [3] is: amino acid alone, no cyclic dipeptide.

T1 sequence (P12821 30-1306, species assumed): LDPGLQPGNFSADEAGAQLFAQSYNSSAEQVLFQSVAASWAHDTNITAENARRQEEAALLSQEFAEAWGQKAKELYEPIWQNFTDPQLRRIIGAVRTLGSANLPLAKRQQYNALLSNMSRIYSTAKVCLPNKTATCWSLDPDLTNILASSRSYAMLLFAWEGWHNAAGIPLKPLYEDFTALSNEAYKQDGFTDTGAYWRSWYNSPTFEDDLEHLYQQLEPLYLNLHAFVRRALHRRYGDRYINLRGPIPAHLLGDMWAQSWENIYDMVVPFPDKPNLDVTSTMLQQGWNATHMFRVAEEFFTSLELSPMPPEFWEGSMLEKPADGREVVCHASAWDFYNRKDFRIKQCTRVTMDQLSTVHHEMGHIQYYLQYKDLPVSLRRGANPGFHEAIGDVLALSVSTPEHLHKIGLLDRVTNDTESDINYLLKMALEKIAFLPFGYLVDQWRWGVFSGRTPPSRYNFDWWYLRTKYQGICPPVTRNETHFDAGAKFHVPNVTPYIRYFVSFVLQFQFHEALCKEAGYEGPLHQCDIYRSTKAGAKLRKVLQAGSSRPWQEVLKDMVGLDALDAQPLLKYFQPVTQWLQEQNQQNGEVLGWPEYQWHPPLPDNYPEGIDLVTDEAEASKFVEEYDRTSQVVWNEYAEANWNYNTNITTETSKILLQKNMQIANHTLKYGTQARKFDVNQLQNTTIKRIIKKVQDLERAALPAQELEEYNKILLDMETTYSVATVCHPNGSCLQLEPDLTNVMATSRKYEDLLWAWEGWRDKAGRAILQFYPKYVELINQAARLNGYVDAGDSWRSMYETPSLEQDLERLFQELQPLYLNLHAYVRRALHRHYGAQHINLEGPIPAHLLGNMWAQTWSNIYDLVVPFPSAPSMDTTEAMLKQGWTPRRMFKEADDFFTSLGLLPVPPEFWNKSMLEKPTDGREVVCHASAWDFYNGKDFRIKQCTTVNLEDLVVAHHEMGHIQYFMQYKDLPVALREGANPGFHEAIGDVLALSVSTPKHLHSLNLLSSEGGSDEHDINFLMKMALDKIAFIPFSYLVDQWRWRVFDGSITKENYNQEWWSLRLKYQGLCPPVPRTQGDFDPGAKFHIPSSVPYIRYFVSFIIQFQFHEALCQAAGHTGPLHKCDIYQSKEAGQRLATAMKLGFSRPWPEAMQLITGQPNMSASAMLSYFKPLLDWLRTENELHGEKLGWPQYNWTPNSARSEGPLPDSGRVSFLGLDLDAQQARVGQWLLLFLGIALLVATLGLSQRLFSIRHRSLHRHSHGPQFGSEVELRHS

In test [1] (setting [3]), `CC(C)C[C@H](N)C(=O)O` [Leucine, leucine] registered a remaining activity at 1000 µM of 83.2% and a remaining activity at 5000 µM of 43.3%.
On to “cyclo-glutamyl-histidine [Cyclo(Glu-His)]”, for which the “angiotensin-converting enzyme-inhibiting action brought about by the amino acid on addition of the cyclic dipeptide” value in test [1] is “enhanced”.
In test [1] (setting [3]), `N[C@@H](Cc1ccc(O)cc1)C(=O)O` [Tyrosine, tyrosine] showed a remaining activity at 1000 µM of 94%. Moreover, in test [1] (amino acid alone, 3000 μM, no cyclic dipeptide), the remaining activity at 3000 µM worked out at 90.6%.
In the case of `C[C@@H](O)[C@H](N)C(=O)O` [Threonine, threonine], in test [1] (setting [3]), the remaining activity at 1000 µM turned out to be 86.6% and the remaining activity at 5000 µM turned out to be 69%.
Regarding `N[C@@H](Cc1c[nH]cn1)C(=O)O` [histidine], the mean arterial pressure entry in test [2] was “decrease”.
As for cyclo-isoleucyl-serine [Cyclo(Ile-Ser)], the “angiotensin-converting enzyme-inhibiting action brought about by the amino acid on addition of the cyclic dipeptide” value in test [1] is on record as “enhanced”.
For the compound `N=C(N)NCCC[C@H](N)C(=O)O` [Arginine, arginine], in test [1] (setting [3]), the remaining activity at 1000 µM amounted to 84.8% and the remaining activity at 5000 µM was 60.2%.
In the case of cyclo-arginyl-tyrosine [Cyclo(Arg-Tyr)], the “angiotensin-converting enzyme-inhibiting action brought about by the amino acid on addition of the cyclic dipeptide” value in test [1] is reported as “enhanced”.

By remaining activity is commonly meant the share of the control activity or signal that is left under treatment. Low readings indicate a large loss of activity, high ones a small loss of activity.
